Patent US20160025704A1, “METHODS FOR IDENTIFYING NEUROPROTECTIVE PKC ACTIVATORS” (priority 2013, published 2016)

How the values were obtained:
[1] = system: Human primary neurons; assay: ASPD-induced apoptosis in human primary neurons (Annexin-V Fluorescein); type: cell-based; settings: 0.27 nM with 100 nM ASPD, 24 hours
Procedure: Protocol: Human primary neurons were grown on chambered slides and treated with vehicle (Control), 100 nM ASPD, ASPD+DCPLA-ME (100 nM), ASPD+bryostatin 1 (0.27 nM) and ASPD+DCPLA-ME (100 nM) or ASPD+bryostatin 1 (0.27 nM) in presence of PKC-ε inhibitor. Following 24 hours of incubation, cells were stained using Annexin-V Fluorescein to detect apoptotic cells and results are shown in FIG. 10 below. […] Data are mean±SEM of three independent experiments. (*p<0.05;** p<0.005 and *** p<0.0005).

[2] = system: sAPP-α; assay: sAPP-α secretion in an Alzheimer's disease cell line; type: cell-based, human; settings: AD cell line
Procedure: Protocol: An Alzheimer's disease cell line was incubated with bryostatin (0.1 nM), Benzolactam (0.1 nM or 1.0 μM), DMSO, pre-treated with staurosporin (100 nM) plus bryostatin (0.1 nM) for three hours. […] The graph units are relative to the vehicle, DMSO, alone (1).

[3] = system: GSK-3β; assay: Phosphorylation of GSK-3β (Ser9) in hippocampus (Western Blot); type: in vivo, mice; settings: 20 μg/m2 i.v., 2 doses/wk for 13 wk
[4] = Internal toxicity study: Clinical Chemistry Panel & Hematology Panel; type: in vivo
Procedure: Internal tests measuring various biological markers were performed 24 hours after administering a PKC activator (bryostatin, cyclopropanated arachidonic acid, DCPLA, and DHACP6) at 10× the therapeutic dose. The results are shown below in Tables 5-7.

[5] = system: neurons in the CA1 hippocampal area; assay: Apoptotic cell death (TUNEL) in hippocampal CA1 area after ischemic (2-VO)/hypoxic event; type: in vivo; settings: 15 μg/m^2 tail vein, 2 doses/week for 10 doses, starting 24 hours after ischemic/hypoxic event; staining 9 day after last dose
Procedure: Protocol: Bryostatin-1 (15 μg/m^2) was administered through a tail vein (2 doses/week, for 10 doses), starting 24 hours after the end of the ischemic (2-VO)/hypoxic event. Staining for apoptotic cell death in the hippocampal CA1 area was performed 9 day after the last bryostatin-1 dose. […] (C) Quantification of TUNEL staining in stratum radiatum (n=3 animals; n=30 confocal images). Con=control; Bry=bryostatin-1; Isch=cerebral ischemia; ***, P<0.001.

[6] = system: cerebral ischemia rats; assay: Spatial learning, memory and visible platform test after cerebral ischemia; type: in vivo; settings: 15 μg/m2 tail vein
Procedure: Protocol: Bryostatin-1 (15 μg/m2) was administered through a tail vein (2 doses/week, for 10 doses), starting 24 hours after the end of the ischemic (2-VO)/hypoxic event. The ability of the rats in spatial learning (2 trials/day for 4 days) and memory (a probe test of 1 min, 24 hours after the last trial) was evaluated, with the first training started 9 days after the last dose of bryostatin-1. […] (Bry—bryostatin-1; Isch—cerebral ischemia; NS—not significant) (*, P<0.05).

[7] = i.v. 150 μg/m^2 = 10 × Therapeutic Dose, 24 hours, normalized to Control
[8] = i.v. 150 μg/m^2 = 10 × Therapeutic Dose, 24 hours, normalized to Normal

SMILES: CCC/C=C/C=C/C(=O)O[C@H]1/C(=C/C(=O)OC)C[C@H]2C[C@H]([C@@H](C)O)OC(=O)C[C@H](O)C[C@@H]3C[C@H](OC(C)=O)C(C)(C)[C@](O)(C[C@@H]4C/C(=C/C(=O)OC)C[C@H](/C=C/C(C)(C)[C@]1(O)O2)O4)O3 [Bryostatin, bryostatin-1]
- protection against ASPD-induced apoptosis [1]: protected against ASPD-induced apoptosis
- sAPP-α secretion at lower concentration ([2]; 0.01 nM, time course): much slower but had about the same effect on secretion after 120 min of incubation
- amount of sAPP-α in the medium ([2]; 0.1 nM, 3 h incubation, relative to DMSO): dramatically enhanced the amount of sAPP-α in the medium
- incubation time at which secretion is near maximal ([2]; 0.1 nM, time course): 160 min
- potency in sAPP-α secretion compared with BL ([2]; both at 0.1 nM): more potent than another PKC activator, BL
- phosphorylation of GSK-3β (Ser9) in the hippocampus of fragile X mice [3]: increases phosphorylation of GSK-3β
- levels of biological markers as compared to normal levels (toxicity) ([4]; 24 hours after administering 10× the therapeutic dose, summary of Tables 5-7): did not demonstrate statistically significant differences in levels of biological markers as compared to normal levels
- ALB (Albumin) [4, 7]: 91.1 ± 0.8
- ALP (Alkaline phosphatase) [4, 7]: 62.8 ± 10.0
- ALT (Alanine aminotransferase) [4, 7]: 63.6 ± 3.6
- AST (Aspartate aminotransferase) [4, 7]: 75.2 ± 11.3
- BUN (Blood urea nitrogen) [4, 7]: 117.0 ± 4.5
- CA (Calcium) [4, 7]: 89.2 ± 6.1
- CO2-LC (Bicarbonate) [4, 7]: 91.1 ± 4.2
- CREAT (Creatinine) [4, 7]: 80.7 ± 3.5
- GLU (Glucose) [4, 7]: 77.6 ± 8.4
- K (Potassium) [4, 7]: 101.0 ± 3.6
- NA (Sodium) [4, 7]: 94.1 ± 1.9
- TBILI (Total bilirubin) [4, 7]: 78.2 ± 13.0
- TPROT (Total protein) [4, 7]: 91.3 ± 2.8
- BA (Basophils) [4, 8]: 300.0 ± 200.0
- EO (Eosinophils) [4, 8]: 375.0 ± 250.0
- HCT (Hematocrit) [4, 8]: 97.3 ± 21.9
- Hb (Hemoglobin) [4, 8]: 83.4 ± 19.5
- LY (Lymphocytes) [4, 8]: 134.4 ± 55.1
- MCH (Mean corpuscular hemoglobin) [4, 8]: 86.7 ± 4.9
- MCHC (Mean corpuscular hemoglobin concentration) [4, 8]: 85.1 ± 2.8
- MCV (Mean corpuscular volume) [4, 8]: 101.8 ± 2.8
- MO (Monocytes) [4, 8]: 133.3 ± 50.0
- MPV (Mean platelet volume) [4, 8]: 96.2 ± 2.4
- NE (Neutrophils) [4, 8]: 144.8 ± 55.1
- PLT (Platelet count) [4, 8]: 109.4 ± 43.9
- RBC (Red Blood Cells) [4, 8]: 95.3 ± 20.0
- RDW (Red cell distribution width) [4, 8]: 106.8 ± 6.2
- WBC (White blood cells) [4, 8]: 142.3 ± 57.3
- apoptotic cell death in neurons in the CA1 hippocampal area [5]: prevents apoptotic cell death
- sensorimotor ability (visible platform test) ([6]; 2 doses/week for 10 doses (FIG. 23)): but not sensorimotor ability
- learning experience and memory after cerebral ischemia ([6]; 2 doses/week for 10 doses, training started 9 days after last dose (FIG. 23)): rescues learning experience and memory
